Data reported in PMC11351612, “Heteronuclear Complexes with Promising Anticancer Activity against Colon Cancer” (Biomedicines, 2024).

Assays:
Caco-2/PD7 cells = experiment: MTT cell proliferation assay, Caco-2/PD7; format: cell-based, human; settings: for Cytotoxic activity compared with mononuclear precursor [Au(Spy)(PTA)] (fold): Caco-2 PD7 and TC7 clones, ratio of IC50; for IC50: MTT, 72 h, mean ± SE of at least three determinations
Protocol: (§1) Cell culture. Human colon cancer Caco-2 cells (PD7 and TC7 clones) were kindly provided by Dr. Edith Brot-Laroche (Université Pierre et Marie Curie-Paris 6, UMR S 872, Les Cordeliers, Lyon, France) and grown in Dulbecco’s Modified Eagles medium (DMEM) (Gibco Invitrogen, Paisley, UK) supplemented with 20% foetal bovine serum (FBS), 1% non-essential amino acids, 1% streptomycin (1000 μg/mL), 1% penicillin (1000 μg/mL), and 1% amphotericin (250 U/mL). Caco-2 cells were maintained at 37 °C in a humidified atmosphere at 5% CO2.
(§2) Cell proliferation assay. Cell proliferation was measured using the 3-(4,5-dimethyl-2-thiazoyl)-2,5-diphenyltetrazolium bromide (MTT) assay, as previously described. Caco-2/TC7 cells were seeded in a 96-well plate at a density of 4000 cells/well and grown for 24 h before being treated with each complex or DMSO (used as control). After 72 h of incubation with the complexes, 10 μL of MTT (5 mg/mL) were added and incubation was continued at 37 °C for 3 h. Inversion removed the medium and 100 μL of DMSO were added to each well. Absorbance at 560 nm, proportional to many living cells, was measured by spectrophotometry (SPECTROstar Nano, BMG LABTECH, Ortenberg, Germany) and converted into a percentage (%) of growth inhibition.
(§3) The antiproliferative effects of the mononuclear and heteropolinuclear complexes were tested on two different Caco-2 cancer cell lines (PD7 and […]). […] Caco-2 cells of both PD7 and TC7 clones were exposed to increasing concentrations of the assayed compounds through dose–response/cell viability analysis. The results in terms of the IC50 parameter (Table 4) were obtained by using the MTT protocol.

[1] = Distribution coefficient (logP7.4), n-octanol-water shake-flask; format: physicochemical; settings: n-octanol / buffered saline pH 7.4, shake-flask
Protocol: Distribution coefficient (logP7.4). The n-octanol-water coefficients of the complexes were determined using a shake-flask method, as previously reported. Briefly, buffered-saline distilled water (100 mL, phosphate buffer [PO4^3−] = 10 mM, [NaCl] = 0.15 M, pH 7.4) and n-octanol (100 mL) were shaken together for 72 h to allow for saturation of both phases. Approximately 1 mg of the complexes was dissolved in 5 mL of the aqueous phase and 5 mL of the organic phase was added, mixing them for 10 min. The resulting emulsion was centrifuged to separate the phases. The concentration of the compounds in each phase was determined using UV-vis absorbance spectroscopy. The logP7.4 was defined as log{[compound(organic)]/[compound(aqueous)]}.

Caco-2/TC7 cells = experiment: MTT cell proliferation assay, Caco-2/TC7; format: cell-based, human; settings: 72 h, mean ± SE of at least three determinations
Protocol: as §1, §2, §3

[2] = target: T1, bovine serum albumin (BSA) (Bos taurus, UniProt P02769); experiment: BSA fluorescence quenching (Stern-Volmer); format: binding; settings: [BSA] = 50 μM, complex 0-30 μM, 298 K; for Stern-Volmer quenching constant KSV: λexc 295 nm
T1 construct: purchased Sigma Aldrich (St. Louis, MO, USA)
T1 sequence (P02769 25-607): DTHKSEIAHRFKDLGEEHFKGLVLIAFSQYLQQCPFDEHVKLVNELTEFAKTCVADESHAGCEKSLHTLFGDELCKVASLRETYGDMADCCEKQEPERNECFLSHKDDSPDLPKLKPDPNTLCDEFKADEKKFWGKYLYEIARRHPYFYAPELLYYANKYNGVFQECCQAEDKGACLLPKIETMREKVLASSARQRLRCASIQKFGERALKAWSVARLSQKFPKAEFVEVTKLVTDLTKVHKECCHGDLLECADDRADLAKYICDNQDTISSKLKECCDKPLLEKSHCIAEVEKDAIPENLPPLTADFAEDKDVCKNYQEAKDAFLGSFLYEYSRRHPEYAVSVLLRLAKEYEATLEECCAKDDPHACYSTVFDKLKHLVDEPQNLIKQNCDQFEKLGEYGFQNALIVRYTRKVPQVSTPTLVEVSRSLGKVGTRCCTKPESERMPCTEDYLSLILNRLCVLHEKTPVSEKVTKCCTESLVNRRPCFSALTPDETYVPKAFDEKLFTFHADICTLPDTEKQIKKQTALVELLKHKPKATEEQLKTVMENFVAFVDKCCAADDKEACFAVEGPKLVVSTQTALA
Protocol: Interaction with bovine serum albumin. BSA was purchased from Sigma Aldrich (St. Louis, MO, USA). A 2 mM stock solution of BSA was prepared by dissolving the commercial powder in PBS at pH 7.4. Afterwards, the real concentration was confirmed using UV-vis spectroscopy (ε280 nm = 43,824 M^−1cm^−1). The heteronuclear complexes were dissolved in DMSO to achieve 6 mM stock solutions, and six aliquots of 2.5 μL were added to a 50 μM solution of BSA in PBS placed in a quartz cuvette of 1 cm optical path. The final concentrations of the complexes in the cuvette were 0, 5, 10, 15, 20, 25, and 30 μM. The fluorescence spectra were recorded on a Jobin-Yvon-Horiba fluorolog FL-3-11 spectrometer. The samples were excited at 295 nm and the emission spectra were recorded in a range from 310 to 450 nm.
The samples were measured 4 min after every addition of the aliquots of the complexes. The fluorescence intensities of the PBS and the complexes were irrelevant under the described conditions. The data were analysed using the Stern–Volmer equation F0/F = 1 + KSV [gold complex] = 1 + Kqτ0[complex] to obtain the Stern–Volmer quenching constant (KSV) and the quenching rate constant (Kq). The binding constant (Kb) was quantified by using the Stern–Volmer equation: log {(F0 − F)/F} = log Kb + n log [complex].
We have carried out fluorescence and UV-Vis spectroscopic experiments to study the affinity of [Cu{Au(Spy)(PTA)}2]PF6 (1) and [Zn{Au(PTA)(Spy)}2](NO3)2 (2) for albumin. These experiments are based on the quenching of the intrinsic tryptophan fluorescence emission undergone by BSA in the presence of increasing concentrations of the trinuclear complexes, which act as quenchers. The intrinsic fluorescence of BSA is susceptible to alterations in its local environment, and the binding or simple electrostatic interaction of molecules can result in modifications to its emission spectrum. Fluorescence quenching experiments have been carried out, observing the emission of tryptophan at 341 nm upon excitation at 295 nm and increasing concentrations of compounds 2 and 3 with BSA. […] The addition of increasing amounts of the complexes to a BSA solution results in a significant reduction in fluorescence intensity without any shift in the emission maximum. The fluorescence data have been analysed using the Stern–Volmer equation so that the binding of the complexes to BSA and the consequent quenching of the emission can be quantified (Table 3). The corresponding plot F0/F versus [complex] (F and F0 are the corresponding intensities in the presence and the absence of the quencher agent) gives a linear plot in both cases (Figure 1B), characteristic of the presence of a single mechanism of quenching, either static or dynamic. […]

[3] = Solution stability by UV-vis in PBS; format: physicochemical; settings: PBS pH 7.4, 37 °C; for Stability under physiological conditions (UV-vis spectrum over time): 24 h
Protocol: Solution chemistry. The stability of the dinuclear derivatives was analysed by absorption UV-vis spectroscopy. UV-vis absorption spectra of the complexes were recorded on a Thermo Scientific spectrophotometer. Solutions of the complexes (5 × 10^−5 M) in PBS (pH = 7.4) were prepared from 20 mM DMSO stock solutions and thereafter monitored over 24 h at 37 °C, measuring the electronic spectra.
The solution stability of the new heterometallic compounds was determined under physiological conditions. To simulate conditions similar to those in cell culture and the body, the compounds were dissolved in a phosphate-buffered saline solution (PBS) with a pH of 7.4 and then incubated at 37 °C. The UV spectra of each complex were recorded at different time intervals (Figure S14). Qualitative determination of the stability of the compounds under such conditions was achieved by comparing the spectra obtained at each time point.

In the case of [Cu{Au(Spy)(PTA)}2]PF6 [compound 1], the “Cytotoxic activity compared with mononuclear precursor [Au(Spy)(PTA)] (fold)” value (Caco-2/PD7 cells; listed as Au2Cu compound (2)) is reported as 15, the IC50 (Caco-2/PD7 cells) is reported as 160 ± 20 nM and the logP [1] is reported as 0.84. For the same substance, the IC50 (Caco-2/TC7 cells) was 130 ± 70 nM, the “number of binding sites n” value [2] was 1.11 and the “Stern-Volmer quenching constant KSV” value [2] was 5730 M⁻¹. For the same substance, the “Solubility in PBS (qualitative)” value [3] was “reduced solubility in PBS” and the “Stability under physiological conditions (UV-vis spectrum over time)” value [3] was “notable stability”.
In the case of [Zn{Au(PTA)(Spy)}2](NO3)2 [compound 2], the “Cytotoxic activity compared with mononuclear precursor [Au(Spy)(PTA)] (fold)” value (Caco-2/PD7 cells) is reported as “slight improvement”, the IC50 (Caco-2/PD7 cells) is reported as 2180 ± 240 nM and the logP [1] is reported as 0.47. The IC50 (Caco-2/TC7 cells) was 1940 ± 810 nM, the “number of binding sites n” value [2] was 0.95 and the “Stern-Volmer quenching constant KSV” value [2] was 1760 M⁻¹. For the same substance, the “Solubility in PBS (qualitative)” value [3] was “highly soluble” and the “Stability under physiological conditions (UV-vis spectrum over time)” value [3] was “remained unaltered for a period of 24 h”.
